Drawing on US8686130B2, “Artificial fluorescent bases” (Riken, priority 2009, dated 2014), this text covers IC50 for 1 substance.

This data set concerns mRNA of firefly luciferase. Put plainly: Suppression of firefly luciferase reporter gene expression by shRNA in HeLa cells (dual luciferase assay). The format is cell-based. The following applies: different shRNA concentrations, read-out: IC50 for suppressing expression of firefly luciferase gene. The procedure:
In this Example, various shRNAs prepared by T7 transcription and gel purification were introduced into HeLa cells by lipofection together with a plasmid encoding a target reporter gene (firefly luciferase) and a control plasmid endocing a Renilla luciferase gene. Suppression of the target gene expression was investigated based on the luminescence of luciferase. […]
HeLa cells were seeded at 1.5×10^4 cells (100 μL of culture medium)/well in a 96-well plate and were cultured in an MEM medium containing 10% fetal bovine serum but not containing antibiotics for 24 hr. […] After culturing for 22 hr, the intensity of luminescence emitted from each of the two types of luciferase proteins was determined.
The effect of suppressing expression of the firefly luciferase protein, which is the target of shRNA, was analyzed by the intensities of luminescence emitted from the firefly luciferase and Renilla luciferase using dual luciferase reporter assay reagent (Promega Corporation). […] The resulting solution was mixed with 100 μL of LAR II reagent, and the luminescence of the firefly luciferase was detected (exposure time: 120 sec) with LAS 4000 (Fujifilm Corporation), then, 100 μL of Stop & Glo reagent was added thereto, and the luminescence of the Renilla luciferase was detected (exposure time: 200 sec). […]
In general terms: In a reporter assay the amount or activity of a reporter protein is the signal.

For orientation: IC50 means the concentration at which inhibition is half-maximal. As for “shRNAF1 WT: 52-mer short hairpin RNA (SEQ ID NO: 10) targeting mRNA of firefly luciferase, A36 unsubstituted (GGAGCCUUCAGGAUUACAAGAUUCAAGAGUCUUGUAAUCCUGAAGGCUCCUU; short hairpin RNA, synthesis route not given here, further chemistry not given here)”, the IC50 is roughly 0.02 nM.
